The values below come from paper PMC4412152, “Human olfactory receptor responses to odorants” (Scientific Data, 2015).

Experiment in all cases: CRE-luciferase cAMP reporter (Dual-Glo), Hana3A cells
Format in all cases: cell-based

The target in test [1] is T1, OR2J3 (Homo sapiens, UniProt O76001).
T1 construct: full-length ORF with N-terminal Rho tag, pCI, Hana3A cells with RTP1S; four clones with the same label
T1 sequence (O76001 1-311): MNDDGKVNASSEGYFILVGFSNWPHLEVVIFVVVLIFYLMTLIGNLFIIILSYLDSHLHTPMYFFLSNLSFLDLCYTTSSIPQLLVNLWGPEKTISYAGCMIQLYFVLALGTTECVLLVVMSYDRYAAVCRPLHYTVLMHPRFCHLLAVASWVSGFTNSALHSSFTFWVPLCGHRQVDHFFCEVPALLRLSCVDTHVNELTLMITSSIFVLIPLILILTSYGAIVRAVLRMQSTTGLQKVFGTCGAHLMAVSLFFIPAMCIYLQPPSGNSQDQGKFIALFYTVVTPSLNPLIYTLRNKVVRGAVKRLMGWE
The text has this:
CRE-luciferase cAMP reporter (Dual-Glo), Hana3A cells on OR2J3

For test [2], the target named is T2, OR10G4 (Homo sapiens, UniProt Q8NGN3, K295Q).
T2 construct: full-length ORF with N-terminal Rho tag, pCI, Hana3A cells with RTP1S; two clones with the same label
T2 sequence (Q8NGN3 1-311 K295Q): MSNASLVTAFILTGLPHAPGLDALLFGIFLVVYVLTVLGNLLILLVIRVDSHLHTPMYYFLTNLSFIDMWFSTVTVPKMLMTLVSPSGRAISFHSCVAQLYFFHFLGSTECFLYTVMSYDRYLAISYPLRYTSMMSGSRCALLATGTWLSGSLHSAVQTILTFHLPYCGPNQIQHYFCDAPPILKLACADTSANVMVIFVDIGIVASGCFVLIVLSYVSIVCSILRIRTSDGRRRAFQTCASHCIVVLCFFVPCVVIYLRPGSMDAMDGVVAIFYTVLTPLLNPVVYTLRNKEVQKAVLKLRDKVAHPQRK
The text has this: CRE-luciferase cAMP reporter (Dual-Glo), Hana3A cells on OR10G4

In test [3] the target is T3, OR4F17 (Homo sapiens, UniProt Q8NGA8).
T3 construct: full-length ORF with N-terminal Rho tag, pCI, Hana3A cells with RTP1S
T3 sequence (Q8NGA8 1-305): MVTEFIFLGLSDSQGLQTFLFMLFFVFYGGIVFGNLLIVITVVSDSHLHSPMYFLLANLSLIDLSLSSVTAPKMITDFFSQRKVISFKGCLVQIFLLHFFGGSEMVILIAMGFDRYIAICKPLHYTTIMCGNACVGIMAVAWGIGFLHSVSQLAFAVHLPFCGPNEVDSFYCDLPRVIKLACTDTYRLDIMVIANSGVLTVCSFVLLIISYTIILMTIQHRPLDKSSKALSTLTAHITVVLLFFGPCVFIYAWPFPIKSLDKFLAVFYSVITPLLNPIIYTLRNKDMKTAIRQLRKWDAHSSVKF
The text has this:
CRE-luciferase cAMP reporter (Dual-Glo), Hana3A cells on OR4F17

In test [4] the target is T4, OR2T1 (Homo sapiens, UniProt A0A126GWK9, I76V).
T4 construct: full-length ORF with N-terminal Rho tag, pCI, Hana3A cells with RTP1S; two clones with the same label
T4 sequence (A0A126GWK9 1-318 I76V): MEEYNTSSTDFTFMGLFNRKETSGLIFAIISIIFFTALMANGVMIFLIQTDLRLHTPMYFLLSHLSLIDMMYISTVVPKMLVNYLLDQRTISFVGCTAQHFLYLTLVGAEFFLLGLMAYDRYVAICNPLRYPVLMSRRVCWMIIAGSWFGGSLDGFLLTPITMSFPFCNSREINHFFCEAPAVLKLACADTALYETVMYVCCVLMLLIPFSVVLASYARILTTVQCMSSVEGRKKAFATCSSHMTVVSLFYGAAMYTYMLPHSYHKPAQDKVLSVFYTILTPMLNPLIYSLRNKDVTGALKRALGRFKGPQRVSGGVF
The text has this: (§1) CRE-luciferase cAMP reporter (Dual-Glo), Hana3A cells on OR2T1

Test [5] deals with T5, OR2T1 (Homo sapiens, UniProt A0A126GWK9).
T5 construct: full-length ORF with N-terminal Rho tag, pCI, Hana3A cells with RTP1S; two clones with the same label
T5 sequence (A0A126GWK9 1-318): T4 sequence (A0A126GWK9 1-318 I76V) with V76I
Description: as §1

Test [6] addresses T6, OR56A4 (Homo sapiens, UniProt Q8NGH8).
T6 construct: full-length ORF with N-terminal Rho tag, pCI, Hana3A cells with RTP1S
T6 sequence (Q8NGH8 1-313): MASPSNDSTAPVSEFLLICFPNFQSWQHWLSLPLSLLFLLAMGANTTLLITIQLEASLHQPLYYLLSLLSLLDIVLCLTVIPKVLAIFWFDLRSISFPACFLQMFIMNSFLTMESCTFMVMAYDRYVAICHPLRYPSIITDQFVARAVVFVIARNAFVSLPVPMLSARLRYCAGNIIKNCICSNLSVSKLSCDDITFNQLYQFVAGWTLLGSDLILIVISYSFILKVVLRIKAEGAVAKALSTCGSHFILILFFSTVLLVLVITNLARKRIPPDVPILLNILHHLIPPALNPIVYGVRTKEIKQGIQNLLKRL
The text has this:
CRE-luciferase cAMP reporter (Dual-Glo), Hana3A cells on OR56A4

Test [7] deals with T7, OR8D1 (Homo sapiens, UniProt Q8WZ84).
T7 construct: full-length ORF with N-terminal Rho tag, pCI, Hana3A cells with RTP1S
T7 sequence (Q8WZ84 1-308): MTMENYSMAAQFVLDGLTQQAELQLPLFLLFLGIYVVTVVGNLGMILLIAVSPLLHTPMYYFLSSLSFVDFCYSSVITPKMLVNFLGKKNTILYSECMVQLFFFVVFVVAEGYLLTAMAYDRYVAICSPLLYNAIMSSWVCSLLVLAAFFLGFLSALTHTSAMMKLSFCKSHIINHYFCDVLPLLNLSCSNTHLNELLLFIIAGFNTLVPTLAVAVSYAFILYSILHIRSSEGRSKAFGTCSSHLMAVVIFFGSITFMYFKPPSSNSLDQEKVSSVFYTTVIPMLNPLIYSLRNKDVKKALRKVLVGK
The conditions noted are these: agonist; rounded to whole log unit. The text has this:
CRE-luciferase cAMP reporter (Dual-Glo), Hana3A cells on OR8D1

Changes are numbered by the printed parent chain.

The molecule `CC(=O)OC/C=C(\C)CCC=C(C)C` [compound 1316, geranyl acetate] showed an EC50 in test [1] of 1000 µM.

As to `COc1cc(C=O)ccc1O` [compound 1346, vanillin], the EC50 in test [2] is 10 µM.

As to `C[C@]12CCC(=O)C[C@@H]1CC[C@@H]1[C@@H]2CC[C@]2(C)C=CC[C@@H]12` [compound 1290, 5α-androst-16-en-3-one], the EC50 in test [3] was 1 mM.

For `CCCC(=O)O` [compound 1295, butyric acid], the EC50 in test [4] and in test [5] was 100 µM each time.

`CCCCCCCCCCC=O` [compound 1345, undecanal]: the EC50 in test [6] was 100 nM.

As for `CCCCCOC(C)=O` [compound 1078, n-amyl acetate], the EC50 in test [1] is 1 µM.

On to `CC/C=C\CCO` [compound 1300, cis-3-hexen-1-ol], for which the EC50 in test [1] was 10 µM.

caramel furanone [compound 1396] gave an EC50 in test [7] of −5 log10 M.
